Measurements taken from patent US20030040456A1, “Method and apparatus for cleaning article” (priority 2000, published 2003).

How the values were obtained:
[1] = solubility of the organic solvents in castor oil at 30° C.; assay type: physicochemical
Description: In the present invention, the organic solvent having high compatibility with oil is an organic solvent having high compatibility with oil adhered to an article to be cleaned, preferably an organic solvent which can be mixed with castor oil (Japanese Pharmacopoeia Act) as a typical example of the oil and standard oil in any ratio at 30° C. Preferred examples of the organic solvent having high compatibility with such oil include paraffin-based hydrocarbons such as dodecane, undecane and tridecane, naphthene-based hydrocarbons and polar organic solvents. Out of these, polar organic solvents are preferred. The polar organic solvents are preferably organic solvents having a dielectric constant of 8 or more, preferably 10 or more, such as glycol ether-based compounds, pyrrolidone-based compounds and imidazolidinone-based compounds. As the glycol ether-based compounds may be used ethylene glycol-based compounds but preferred are propylene glycol alkyl ether-based compounds.
(§1) The organic solvents and surfactants used in examples and comparative examples are given below.

[2] = solubility of the organic solvents in water at 60° C.; assay type: physicochemical
Description: The organic solvent having high compatibility with oil is preferably a polar organic solvent as described above because excellent cleanability can be obtained. The polar organic solvent is particularly preferably an organic solvent having low compatibility with water, specifically solubility in water at 60° C. of 50 vol % or less, preferably 30 vol % or less. More specifically, the polar organic solvent is preferably selected from a propylene glycol alkyl ether-based compound represented by the following formula (I): [drawing 1]
Compatibility with water means ability of mixing with water in any ratio at 60° C.
as §1

Compound	solubility in castor oil [1]	solubility in water (in words) [2]	solubility in water [2]
CN1CCN(C)C1=O [DMI, 1,3-dimethyl-2-imidazolidinone]	infinitely soluble	infinitely soluble	
CCCOC(C)COC(C)CO (stereo not drawn) [DPP, dipropylene glycol monopropyl ether]	infinitely soluble		10 vol %
CN1CCCC1=O [NMP, N-methylpyrrolidone]	infinitely soluble	infinitely soluble	
dipropylene glycolmonomethyl ether [DPM]	infinitely soluble	infinitely soluble	

Second part, the compound after the results:

solubility in castor oil [1]	solubility in water (in words) [2]	solubility in water [2]	Compound
infinitely soluble		6 vol %	CCCCOCC(C)O (stereo not drawn) [PB, propylene glycol monobutyl ether]
infinitely soluble		less than 1 vol %	CCCCCCCCCCCCCC [TD, n-tetradecane]
